Where a name gives a salt, the structure may show the parent alone.

Common to all, as to assay type: physicochemical
Data set [1] can be described thus: Influence of light wavelength on related substances in solution. The protocol:
In order to research the influence of light of the compound represented by formula (I), the amount of the related substances was measured after illumination with constant quantity of light.
A fixed amount of monohydrochloride of the compound represented by formula (I) was collected and dissolved in a mix of pH7 buffer:methanol:acetonitrile=38:31:31 to prepare a solution of 800 μg/mL. The solution was sealed in glass bottles. Thereafter, the glass bottles containing solution were irradiated with light of different wavelengths by a light irradiator (CRM-FA manufactured by Nippon Spectroscopy) and the amounts of related substances were measured.
The amount of the related substances was measured by liquid chromatography by employing the following method and conditions. The main related substance was the E-form of the optical isomer of the compound represented by formula (I). Therefore, in the analysis of the related substance amount, the E-form of the optical isomer of the compound represented by formula (I) was used as a reference for the analysis. • Detector: ultraviolet absorptiometer (measurement wavelength: 225 nm) • Column: Cadenza CW-C18 3μ, 4.6×150 mm (Imtakt) • Column temperature: constant temperature around 35° C. • Mobile Phase A: 10 mM ammonium acetate, […]

The nature of data set [2]: Water sorption-desorption isothermal measurement. The following applies: ratio of increased moisture mass. An excerpt: Water Sorption-desorption Isothermal Measurement
Data set [3] in a line: Test of solubility in water for injection. As to conditions: stirred at 37° C. for 1 hour. The protocol:
1. Formulation of Calibration Curve
First, 5 mg of monohydrochloride crystalline form I of the compound represented by formula (I) was precisely weighed and dissolved in a mixed solution of acetonitrile:water (1:1), and thus a 500 μg/mL solution was obtained. The obtained solution was diluted with a mixed solution of acetonitrile:water (1:1) such that the concentrations of the compound were 5 and 50 μg/mL, and a standard calibration curve was prepared. The same operation was carried out for monohydrochloride crystalline form II, monohydrochloride crystalline form V, monohydrochloride crystalline form VI, mono-p-toluenesulfonate crystalline form I, and free base crystals.
2. Formulation of Sample Solution
First, 1 mg of monohydrochloride crystalline form I of the compound represented by formula (I) was precisely weighed and transferred to a vial having a volume of 4 mL. Then, 1 mL of water (water for injection) was added, and the mixture was stirred at 37° C. for 1 hour. After being stirred, this suspension was filtered, and the peak area using a solution obtained by diluting the filtrate two-fold with a mixed solution of acetonitrile:water (1:1) as a sample. The concentration was calculated using the peak area and the calibration curve prepared above. The same operation was carried out for monohydrochloride crystalline form II, monohydrochloride crystalline form V, monohydrochloride crystalline form VI, mono-p-toluenesulfonate crystalline form I, and free base crystals.

Data set [4] in a line: Light exposure test of crystals (E isomer by HPLC). The following applies: for E isomer (Retention time 38 minutes) Increased amount: light exposed sample minus dark control.
The nature of data set [5]: Test of solubility in organic solvent. As to conditions: stirred at 22° C. for 4 hours, supernatant; for Concentration (% by weight) 2-Propanol: suspended in 2-propanol; for Concentration (% by weight) Acetone: suspended in acetone; for Concentration (% by weight) Ethyl acetate: suspended in ethyl acetate. As for the experimental part: The monohydrochloride crystalline form I, monohydrochloride crystalline form V, and free base crystals of the compound represented by formula (I) were each suspended in 2-propanol, acetone, and ethyl acetate, and stirred at 22° C. for 4 hours, and the concentrations of supernatants were measured.

Where [6] appears, read: listed as mono-p-toluenesulfonate crystalline form I.
[7] abbreviates: listed as Monohydrochloride form crystal VI.
[8] abbreviates: listed as Monohydrochloride form crystal V.

As to `CC#C/C(=N\OC[C@H]1COCCN1)c1ccc2ncnc(Nc3ccc(OCc4cccc(F)c4)c(Cl)c3)c2c1`, in data set [1] (800 μg/mL solution in pH7 buffer:methanol:acetonitrile=38:31:31, light higher than 450 nm), the “Total amount of related substances, wavelength of light higher than 450 nm” value is reported as “increased little”. Moreover, the “Total amount of related substances, wavelength of light shorter than 450 nm” value in data set [1] (800 μg/mL solution in pH7 buffer:methanol:acetonitrile=38:31:31, light shorter than 450 nm) was “increased as the wavelength decreased”.

For the molecule `CC#C/C(=N\OC[C@H]1COCCN1)c1ccc2ncnc(Nc3ccc(OCc4cccc(F)c4)c(Cl)c3)c2c1` [Free base crystal], the “Ratio of increased mass” value in data set [2] is “About 1.0%”. Also, the “Solubility in water for injection” value in data set [3] (listed as free base crystals) was “not dissolved in water for injection at all”. In addition, in data set [4], the “E isomer (Retention time 38 minutes) Light exposed sample” value was 2.59 area % and the “E isomer (Retention time 38 minutes) Increased amount” value was 2.59 area %. Also, in data set [5], the “Concentration (% by weight) 2-Propanol” value is given as 0.49 % by weight, the “Concentration (% by weight) Acetone” value amounted to 8.1 % by weight and the “Concentration (% by weight) Ethyl acetate” value stood at 3.3 % by weight.

In the case of `CC#C/C(=N\OC[C@H]1COCCN1)c1ccc2ncnc(Nc3ccc(OCc4cccc(F)c4)c(Cl)c3)c2c1` [Mono-p-toluenesulfonate crystalline form I], the entries for the “Ratio of increased mass” value in data set [2] and in data set [2] (setting [6]) were “About 1.4%” and “small”, respectively. In addition, in data set [3], the “Solubility in water for injection” value was “high solubilities”. Besides, in data set [4], the “E isomer (Retention time 38 minutes) Dark control” value was determined as 0.10 area %. The “E isomer (Retention time 38 minutes) Light exposed sample” value in data set [4] is recorded as 32.86 area %. The “E isomer (Retention time 38 minutes) Increased amount” value was 32.76 area % in data set [4] and “about 33 area %” in data set [4] (setting [6]).

Consider `CC#C/C(=N\OC[C@H]1COCCN1)c1ccc2ncnc(Nc3ccc(OCc4cccc(F)c4)c(Cl)c3)c2c1` [Monohydrochloride crystalline form II], for which the “Ratio of increased mass” value in data set [2] is given as “About 0.3%”. Besides, the “Ratio of increased mass” value in data set [2] (listed as monohydrochloride crystalline form H) is recorded as “small”. Besides, in data set [3], the “Solubility in water for injection” value is given as “high solubilities”. Besides, in data set [4], the “E isomer (Retention time 38 minutes) Dark control” value was 1.44 area %, the “E isomer (Retention time 38 minutes) Light exposed sample” value is on record as 1.21 area % and the “E isomer (Retention time 38 minutes) Increased amount” value is reported as −0.23 area %.

With `CC#C/C(=N\OC[C@H]1COCCN1)c1ccc2ncnc(Nc3ccc(OCc4cccc(F)c4)c(Cl)c3)c2c1` [Monohydrochloride crystalline form I], the “Ratio of increased mass” value in data set [2] is “About 0.8%”. Besides, in data set [2] (listed as monohydrochloride crystalline form I), the “Ratio of increased mass” value is reported as “small”. In addition, the “Solubility in water for injection” value in data set [3] is recorded as “high solubilities”. Besides, in data set [4], the “E isomer (Retention time 38 minutes) Dark control” value was determined as 0.63 area %, the “E isomer (Retention time 38 minutes) Light exposed sample” value was determined as 4.41 area % and the “E isomer (Retention time 38 minutes) Increased amount” value is listed as 3.78 area %. In data set [5], the “Concentration (% by weight) 2-Propanol” value came to 0.03 % by weight, the “Concentration (% by weight) Acetone” value is 0.08 % by weight and the “Concentration (% by weight) Ethyl acetate” value is 0.01 % by weight.

`CC#C/C(=N\OC[C@H]1COCCN1)c1ccc2ncnc(Nc3ccc(OCc4cccc(F)c4)c(Cl)c3)c2c1` [Monohydrochloride crystalline form VI]: the “Ratio of increased mass” value in data set [2] is “About 0.5%”. In addition, in data set [2] (listed as monohydrochloride crystalline form VI), the “Ratio of increased mass” value is recorded as “small”. For the same molecule, the “Solubility in water for injection” value in data set [3] is listed as “high solubilities”. In addition, in data set [4] (setting [7]), the “E isomer (Retention time 38 minutes) Dark control” value is reported as 1.16 area %, the “E isomer (Retention time 38 minutes) Increased amount” value is 0.64 area % and the “E isomer (Retention time 38 minutes) Light exposed sample” value was determined as 1.80 area %.

Regarding `CC#C/C(=N\OC[C@H]1COCCN1)c1ccc2ncnc(Nc3ccc(OCc4cccc(F)c4)c(Cl)c3)c2c1` [Monohydrochloride crystalline form V], the “Ratio of increased mass” value in data set [2] is given as “About 1.7%”. For the same molecule, in data set [2] (listed as monohydrochloride crystalline form V), the “Ratio of increased mass” value is recorded as “small”. Also, in data set [3], the “Solubility in water for injection” value is “high solubilities”. In data set [4] (setting [8]), the “E isomer (Retention time 38 minutes) Dark control” value amounted to 0.13 area %, the “E isomer (Retention time 38 minutes) Increased amount” value came to 1.06 area % and the “E isomer (Retention time 38 minutes) Light exposed sample” value was 1.19 area %. Further, in data set [5], the “Concentration (% by weight) 2-Propanol” value was determined as 0.01 % by weight, the “Concentration (% by weight) Acetone” value was 0.02 % by weight and the “Concentration (% by weight) Ethyl acetate” value is on record as 0.00 % by weight.

`CC#C/C(=N\OC[C@H]1COCCN1)c1ccc2ncnc(Nc3ccc(OCc4cccc(F)c4)c(Cl)c3)c2c1` [Monosulfate crystal]: the “Ratio of increased mass” value is listed as “About 3.3%” in data set [2] and “about 3.3%” in data set [2] (listed as monosulfate crystals).

The values are drawn from patent US10953016B2, “Solid dosage form containing quinazoline derivative” (Shionogi & Co., Ltd., priority 2017, dated 2021).
